Results on 17 compounds are retold here after patent US10206394B2, “Herbicidal compounds” (Syngenta Participations AG, priority 2014, dated 2019).

Test in all cases: Glasshouse assay for herbicidal activity (pre- and post-emergence), percentage phytotoxicity
What all share (type): in vivo

The subject of assay [1] is Lolium perenne (LOLPE). As to conditions: Lolium perenne, rate 250 g/ha. Put shortly:
(§1)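 Visual phytotoxicity score, 0% = undamaged to 100% = total kill, read 20 days after treatment for PRE and 15 days for POST. Pots of standard soil; treatment at day 1 (PRE) or roughly day 12 (POST). Glasshouse: 16 h photoperiod, 65% RH, 24/18 or 20/16 °C by climate type.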

Assay [2] relates to Avena fatua (AVEFA). As to conditions: Avena fatua, rate 250 g/ha. Summed up:
as §1

Assay [3] relates to Alopecurus myosuroides (ALOMY). The following applies: Alopecurus myosuroides, rate 250 g/ha. Summed up: as §1
For assay [4], the system named is Echinochloa crus-galli (ECHCG). As to conditions: Echinochloa crus-galli, rate 250 g/ha. Put shortly:
as §1

Where [5] appears, read: post-emergence, 360 h, POST-emergence, visual score 15 DAA (100%=total damage, 0%=no damage), read-out: Post-emergence herbicidal activity (percentage phytotoxicity) LOLPE POST.
[6] abbreviates: pre-emergence, 480 h, PRE-emergence, visual score 20 DAA (100%=total damage, 0%=no damage), read-out: Pre-emergence herbicidal activity (percentage phytotoxicity) LOLPE PRE.
The mark [7] stands for this setting: post-emergence, 360 h, POST-emergence, visual score 15 DAA (100%=total damage, 0%=no damage), read-out: Post-emergence herbicidal activity (percentage phytotoxicity) AVEFA POST.
The mark [8] stands for this setting: pre-emergence, 480 h, PRE-emergence, visual score 20 DAA (100%=total damage, 0%=no damage), read-out: Pre-emergence herbicidal activity (percentage phytotoxicity) AVEFA PRE.
Setting [9] is: post-emergence, 360 h, POST-emergence, visual score 15 DAA (100%=total damage, 0%=no damage), read-out: Post-emergence herbicidal activity (percentage phytotoxicity) ALOMY POST.
The mark [10] stands for this setting: pre-emergence, 480 h, PRE-emergence, visual score 20 DAA (100%=total damage, 0%=no damage), read-out: Pre-emergence herbicidal activity (percentage phytotoxicity) ALOMY PRE.
The mark [11] stands for this setting: post-emergence, 360 h, POST-emergence, visual score 15 DAA (100%=total damage, 0%=no damage), read-out: Post-emergence herbicidal activity (percentage phytotoxicity) ECHCG POST.
[12] abbreviates: pre-emergence, 480 h, PRE-emergence, visual score 20 DAA (100%=total damage, 0%=no damage), read-out: Pre-emergence herbicidal activity (percentage phytotoxicity) ECHCG PRE.

Like-named read-outs stand apart in the source and are kept apart here.

As for `C/C=C/CNC(=O)CC1CC(=O)C(c2c(C)cc(-c3ncc(F)cc3F)cc2C)C1=O` (stereo not shown) [Compound B291], the pest or weed control at 250 g/ha was determined as 90% in assay [1] (setting [5]); 100% in assay [1] (setting [6]); 100% in assay [2] (setting [7]); 90% in assay [2] (setting [8]); 90% in assay [3] (setting [9]); 100% in assay [3] (setting [10]). Further, the pest or weed control at 250 g/ha in assay [4] (setting [11]) and in assay [4] (setting [12]) was 100% throughout.
In the case of `Cc1cc(-c2ncc(F)cn2)cc(C)c1C1C(=O)CC(CC(=O)NC2CC2(F)F)C1=O` (stereo not shown) [Compound B292], the pest or weed control at 250 g/ha is 90% in assay [1] (setting [5]); 70% in assay [1] (setting [6]); 100% in assay [2] (setting [7]); 90% in assay [2] (setting [8]); 100% in assay [3] (setting [9]); 100% in assay [3] (setting [10]). Moreover, the pest or weed control at 250 g/ha in assay [4] (setting [11]) and in assay [4] (setting [12]) was 100% each time.
As for `Cc1cc(-c2ncc(F)cn2)cc(C)c1C1C(=O)CC(CC(=O)NC2CC2F)C1=O` (stereo not shown) [Compound B293], the pest or weed control at 250 g/ha in assay [1] (setting [5]) stood at 90%; in assay [1] (setting [6]), 90%; in assay [2] (setting [7]) it was 100%; in assay [2] (setting [8]) it was 60%; in assay [3] (setting [9]), 100%; in assay [3] (setting [10]), 90%. In addition, the pest or weed control at 250 g/ha in assay [4] (setting [11]) is 100%; in assay [4] (setting [12]), 90%.
`C=C(F)CNC(=O)CC1CC(=O)C(c2c(C)cc(-c3ncc(F)cn3)cc2C)C1=O` (stereo not shown) [Compound B294]: the pest or weed control at 250 g/ha was determined as 100% in assay [1] (setting [5]); 100% in assay [1] (setting [6]); 100% in assay [2] (setting [7]); 100% in assay [2] (setting [8]); 100% in assay [3] (setting [9]); 90% in assay [3] (setting [10]). In addition, the pest or weed control at 250 g/ha in assay [4] (setting [11]) and in assay [4] (setting [12]) was 100% each time.
For the compound `Cc1cc(-c2ccc(C#N)cn2)cc(C)c1C1C(=O)CC(CC(=O)NCc2cccc(Cl)c2)C1=O` (stereo not shown) [Compound B295], the pest or weed control at 250 g/ha turned out to be 90% in assay [1] (setting [5]); 90% in assay [1] (setting [6]); 100% in assay [2] (setting [7]); 60% in assay [2] (setting [8]); 90% in assay [3] (setting [9]); 80% in assay [3] (setting [10]). Also, the pest or weed control at 250 g/ha was 100% in assay [4] (setting [11]) and 90% in assay [4] (setting [12]).
On to `Cc1cc(-c2ccc(Br)cn2)cc(C)c1C1C(=O)CC(CC(=O)NC(C)C)C1=O` (stereo not shown) [Compound B296], for which the pest or weed control at 250 g/ha in assay [1] (setting [5]) was 100%; in assay [1] (setting [6]), 90%; in assay [2] (setting [7]) it was 100%; in assay [2] (setting [8]), 90%; in assay [3] (setting [9]), 100%; in assay [3] (setting [10]), 90%. Besides, the pest or weed control at 250 g/ha in assay [4] (setting [11]) and in assay [4] (setting [12]) was 100% each time.
With `C#CC(C)(C)NC(=O)CC1CC(=O)C(c2c(C)cc(-c3ccc(Br)cn3)cc2C)C1=O` (stereo not shown) [Compound B297], the pest or weed control at 250 g/ha was found to be 100% in assay [1] (setting [5]); 90% in assay [1] (setting [6]); 100% in assay [2] (setting [7]); 90% in assay [2] (setting [8]); 100% in assay [3] (setting [9]); 90% in assay [3] (setting [10]). The pest or weed control at 250 g/ha in assay [4] (setting [11]) and in assay [4] (setting [12]) was 100% in each case.
Regarding `C=C(C)CNC(=O)CC1CC(=O)C(c2c(C)cc(-c3ccc(Br)cn3)cc2C)C1=O` (stereo not shown) [Compound B298], the pest or weed control at 250 g/ha in assay [1] (setting [5]) is 90%; in assay [1] (setting [6]), 90%; in assay [2] (setting [7]) it was 100%; in assay [2] (setting [8]), 90%; in assay [3] (setting [9]), 100%; in assay [3] (setting [10]), 90%. In addition, the pest or weed control at 250 g/ha in assay [4] (setting [11]) and in assay [4] (setting [12]) was 100% throughout.
In the case of `Cc1cc(-c2ccc(Br)cn2)cc(C)c1C1C(=O)CC(CC(=O)N2CCOCC2)C1=O` (stereo not shown) [Compound B299], the pest or weed control at 250 g/ha in assay [1] (setting [5]) stood at 100%; in assay [1] (setting [6]) it was 100%; in assay [2] (setting [7]), 90%; in assay [2] (setting [8]), 90%; in assay [3] (setting [9]) it was 90%; in assay [3] (setting [10]) it was 90%. Further, the pest or weed control at 250 g/ha in assay [4] (setting [11]) and in assay [4] (setting [12]) was 100% throughout.
With `C=CC(C)NC(=O)CC1CC(=O)C(c2c(C)cc(-c3ncc(Cl)cc3F)cc2C)C1=O` (stereo not shown) [Compound B300], the pest or weed control at 250 g/ha in assay [1] (setting [5]), in assay [1] (setting [6]), in assay [2] (setting [7]), in assay [2] (setting [8]), in assay [3] (setting [9]) and in assay [3] (setting [10]) was 100% each time. For the same compound, the pest or weed control at 250 g/ha in assay [4] (setting [11]) and in assay [4] (setting [12]) was 100% each time.
In the case of `C=CC(C)NC(=O)CC1CC(=O)C(c2c(C)cc(Br)cc2C)C1=O` (stereo not shown) [Compound B301], the pest or weed control at 250 g/ha in assay [1] (setting [5]) worked out at 50%; in assay [1] (setting [6]), 70%; in assay [2] (setting [7]), 70%; in assay [2] (setting [8]) it was 50%; in assay [3] (setting [9]) it was 70%; in assay [3] (setting [10]) it was 80%. Further, the pest or weed control at 250 g/ha in assay [4] (setting [11]) came to 70%; in assay [4] (setting [12]), 60%.
As to `Cc1cc(-c2ncc(F)cn2)cc(C)c1C1C(=O)CC(CC(=O)NC/C=C/Cl)C1=O` (stereo not shown) [Compound B302], the pest or weed control at 250 g/ha in assay [1] (setting [5]), in assay [1] (setting [6]), in assay [2] (setting [7]), in assay [2] (setting [8]), in assay [3] (setting [9]) and in assay [3] (setting [10]) was 100% each time. Further, the pest or weed control at 250 g/ha in assay [4] (setting [11]) and in assay [4] (setting [12]) was 100% each time.
On to `C/C=C/CNC(=O)CC1CC(=O)C(c2c(C)cc(-c3ncc(F)cn3)cc2C)C1=O` (stereo not shown) [Compound B303], for which the pest or weed control at 250 g/ha in assay [1] (setting [5]) came out at 100%; in assay [1] (setting [6]) it was 80%; in assay [2] (setting [7]) it was 100%; in assay [2] (setting [8]), 80%; in assay [3] (setting [9]), 100%; in assay [3] (setting [10]) it was 90%. Further, the pest or weed control at 250 g/ha in assay [4] (setting [11]) and in assay [4] (setting [12]) was 100% throughout.
Take `C=C(F)CNC(=O)CC1CC(=O)C(c2c(C)cc(-c3ncc(F)cc3F)cc2C)C1=O` (stereo not shown) [Compound B304]: the pest or weed control at 250 g/ha in assay [1] (setting [5]), in assay [1] (setting [6]), in assay [2] (setting [7]), in assay [2] (setting [8]), in assay [3] (setting [9]) and in assay [3] (setting [10]) was 100% each time. Moreover, the pest or weed control at 250 g/ha in assay [4] (setting [11]) worked out at 100%; in assay [4] (setting [12]), 90%.
With `CCNC(=O)CC1CC(=O)C(c2c(C)cc(-c3ncc(Cl)cn3)cc2C)C1=O` (stereo not shown) [Compound B305], the pest or weed control at 250 g/ha in assay [1] (setting [5]), in assay [1] (setting [6]), in assay [2] (setting [7]), in assay [2] (setting [8]), in assay [3] (setting [9]) and in assay [3] (setting [10]) was 100% throughout. Moreover, the pest or weed control at 250 g/ha in assay [4] (setting [11]) and in assay [4] (setting [12]) was 100% in each case.
For the compound `CCNC(=O)CC1CC(=O)C(c2c(C)cc(-c3ccc(Cl)cn3)cc2C)C1=O` (stereo not shown) [Compound B306], the pest or weed control at 250 g/ha in assay [1] (setting [5]), in assay [1] (setting [6]), in assay [2] (setting [7]), in assay [2] (setting [8]), in assay [3] (setting [9]) and in assay [3] (setting [10]) was 100% in each case. Also, the pest or weed control at 250 g/ha in assay [4] (setting [11]) and in assay [4] (setting [12]) was 100% each time.
Consider `CCNC(=O)CC1CC(=O)C(c2c(C)cc(-n3cc(Cl)cn3)cc2C)C1=O` (stereo not shown) [Compound B307], for which the pest or weed control at 250 g/ha in assay [1] (setting [5]) was determined as 90%; in assay [1] (setting [6]), 100%; in assay [2] (setting [7]), 100%; in assay [2] (setting [8]) it was 100%; in assay [3] (setting [9]), 90%; in assay [3] (setting [10]) it was 100%. Further, the pest or weed control at 250 g/ha in assay [4] (setting [11]) and in assay [4] (setting [12]) was 100% throughout.
